One data set concerns the target T1, human MCH receptor (Homo sapiens, UniProt Q99705).
T1 construct: expressed in transfected cells
As to the kind of experiment: calcium mobilization assay (FLIPR), functional IC50 of MCH1R antagonists. In kind it is cell-based. The source says: A difference from the reference was, however, the use of the plasmid pEAK8 from EDGE Biosystems (USA) for the construction of the expression vector. The host used for the transfection was a transformed HEK cell line named “PEAK Stable Cells” (likewise from EDGE Biosystems). Functional measurements of the cellular calcium flux after addition of agonist (MCH) in the presence of ligand of the invention took place with the aid of the FLIPR apparatus from Molecular Devices (USA), using protocols of the apparatus manufacturer.
In general terms: Calcium flux is commonly read through the fluorescence of an indicator in the cells.

The nature of data set [1]: nephelometric (kinetic) solubility determination, phosphate buffer pH 7.4. In kind it is physicochemical. The conditions noted are these: for solubility kinetic: aqueous buffer, kinetic from dmso stock, nephelometric, Table 7; for pH 7.4 (solubility): nephelometry, Table 8, reference compounds versus inventive examples. As for the experimental part: A DMSO solution of the test compound (2.5 mM; 0.5 μl) is pipetted into 200 μl of an aqueous test solution (e.g. phosphate-buffered saline, 10×, 1M, Sigma, adjusted to 10 mM, pH 7.4) in a 96-well microtiter plate, and the turbidity is measured at the resulting theoretical concentration for the test compound of 6.25 μM using a nephelometer (e.g. Nephelostar Galaxy, BMG Labtech). The concentration of the test compound in the aqueous test solution is then raised to a theoretical 12.5 μM by adding further DMSO solution (2.5 mM; 0.5 μl), and the turbidity measurement is repeated. Further additions of DMSO solutions (1 μl, 2.5 mM; 0.5 μl, 10 mM; then 9×1 μl, 10 mM resulting in theoretical concentrations of 25 μM, 50 μM, 100 μM, 150 μM, 200 μM, 250 μM, 300 μM, 350 μM, 400 μM, 450 μM and 500 μM) with turbidity measurement in between complete the measurement process.
Evaluation: The turbidity values from the nephelometer are plotted against the theoretical concentration of the test compound in the aqueous test solution. As soon as a significant turbidity is detected (e.g. 5 times above the control value of the aqueous test solution) at a theoretical concentration, the level of concentration below this is stated to be the solubility limit of the test compound in the test solution. Thus, the maximum possible measurement range emerges as values<6.25 μM, 6.25-500 μM and >500 μM.

Setting [2] is: recombinant HEK293 cell line expressing the human MCH receptor, calcium flux after addition of agonist (MCH), read-out: IC50.

39 compounds from patent US8841290B2, “Substituted tetrahydronaphthalenes, method for the production thereof, and use thereof as drugs” (Sanofi, priority 2009, dated 2014) can be followed below.

Molecules are shown by their SMILES. Converted amounts (≈) assume the structure as drawn. Like-named read-outs stand apart in the source and are kept apart here. Bounds are passed on as bounds.

T1 sequence (Q99705 whole entry): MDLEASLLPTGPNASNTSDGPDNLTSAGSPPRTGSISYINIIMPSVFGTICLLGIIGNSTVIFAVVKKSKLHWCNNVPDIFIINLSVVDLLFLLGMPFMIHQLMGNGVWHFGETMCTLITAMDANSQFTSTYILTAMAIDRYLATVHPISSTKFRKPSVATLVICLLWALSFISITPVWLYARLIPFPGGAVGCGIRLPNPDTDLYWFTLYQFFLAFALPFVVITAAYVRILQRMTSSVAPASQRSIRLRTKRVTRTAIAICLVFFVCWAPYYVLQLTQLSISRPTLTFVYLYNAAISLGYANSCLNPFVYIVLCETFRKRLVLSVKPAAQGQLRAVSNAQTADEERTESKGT

For orientation: IC50 means the concentration that gives 50% inhibition. What is called kinetic solubility is solubility judged after dilution from a stock solution rather than from solid. Consider `CCCCOc1ccc(C(=O)N(C)[C@H]2CCc3cc(CN4CCCC4)ccc3C2)cc1` [Example 6-03], for which the IC50 on human MCH receptor (setting [2]) is 327 nM. Besides, in data set [1], the kinetic solubility is above 267 µg/mL and the “pH 7.4 (solubility)” value is given as above 0.267 mg/ml.
For `CC[C@H](O)COc1ccc(C(=O)N(C)[C@H]2CCc3cc(CN4CCCC4)ccc3C2)cc1` [Example 6-04] the same measures were 1200 nM, above 275 µg/mL and above 0.275 mg/ml.
On to `CN(C(=O)c1ccc(OCC2CC2)cc1)[C@H]1CCc2cc(CN3CCCC3)ccc2C1` [Example 6-05], for which the IC50 at human MCH receptor (setting [2]) turned out to be 153 nM. In data set [1], this compound registered a solubility (kinetic) of 199 µg/mL (≈ 475 µM).
Regarding `O=C(N[C@H]1CCc2cc(CN3CCCCCC3)ccc2C1)c1ccc(COC2CCC2)cc1` [Example 6-06], on human MCH receptor (setting [2]), the IC50 was determined as 75 nM. The same compound came in with a kinetic solubility in data set [1] of 28 µg/mL (≈ 62.7 µM).
Take `O=C(N[C@H]1CCc2cc(CN3CCCCCC3)ccc2C1)c1ccc(NC(=O)C2CCCC2)cc1` [Example 6-07]: the IC50 on human MCH receptor stood at 332 nM. The compound further returned a kinetic solubility in data set [1] below 4 µg/mL.
With `O=C(N[C@H]1CCc2cc(CN3CCCCCC3)ccc2C1)c1ccc(OCC2CCC2)cc1` [Example 6-08], the IC50 at human MCH receptor (setting [2]) was 168 nM. This compound also gave a kinetic solubility in data set [1] below 4 µg/mL.
For `CCCCOc1ccc(C(=O)N[C@H]2CCc3cc(CN4CC5CCC4C5)ccc3C2)cc1` (some centres unmarked) [Example 7-01] the same measures were 245 nM and 82 µg/mL (≈ 190 µM).
For the compound `CN(C(=O)c1ccc(OCC2CC2)cc1)[C@H]1CCc2cc(CN3C[C@@H]4CC[C@H]3C4)ccc2C1` [Example 7-02], the IC50 on human MCH receptor (setting [2]) was 831 nM. The kinetic solubility in data set [1] was above 279 µg/mL.
For `CN(C(=O)c1ccc(OCC2CC2)cc1)[C@H]1CCc2cc(CN3CC4CCC3CC4)ccc2C1` [Example 7-03] the same measures were 1370 nM and above 286 µg/mL.
As for `CN(C(=O)c1ccc(OCC2CC2)cc1)[C@H]1CCc2cc(CN3CCC(C(C)(C)O)CC3)ccc2C1` [Example 7-04], at human MCH receptor (setting [2]), the IC50 worked out at 141 nM. This compound gave a solubility (kinetic) in data set [1] above 302 µg/mL.
With `COC1CCN(Cc2ccc3c(c2)CC[C@H](N(C)C(=O)c2ccc(OCC4CC4)cc2)C3)CC1` [Example 7-05], the IC50 at human MCH receptor (setting [2]) is 625 nM. The solubility (kinetic) in data set [1] is above 288 µg/mL.
For `CN(C(=O)c1ccc(OCC2CC2)cc1)[C@H]1CCc2cc(CN3CCC(O)CC3)ccc2C1` [Example 7-06] the same measures were 508 nM and above 281 µg/mL.
For `CN(C(=O)c1ccc(OCC2CC2)cc1)[C@H]1CCc2cc(CNC3CCCCC3)ccc2C1` [Example 7-07] the same measures were 336 nM and above 280 µg/mL.
The like results for `CN(C(=O)c1ccc(OCC2CC2)cc1)[C@H]1CCc2cc(CNCC3CC3)ccc2C1` [Example 7-08] were, in that order, 420 nM and above 266 µg/mL.
For the compound `CN(C(=O)c1ccc(OCC2CC2)cc1)[C@H]1CCc2cc(CN3CCC3)ccc2C1` [Example 7-09], at human MCH receptor (setting [2]), the IC50 was 261 nM. Also, in data set [1], the solubility (kinetic) was above 259 µg/mL.
Regarding `CN(C(=O)c1ccc(OCC2CC2)cc1)[C@H]1CCc2cc(CNC3CCC3)ccc2C1` [Example 7-10], the IC50 at human MCH receptor (setting [2]) came out at 1100 nM. Besides, the kinetic solubility in data set [1] was above 266 µg/mL.
For `CN(C(=O)c1ccc(OCC2CC2)cc1)[C@H]1CCc2cc(CNCC(C)(C)C)ccc2C1` [Example 7-11] the same measures were 898 nM and above 274 µg/mL.
For `O=C(N[C@H]1CCc2cc(CN3CCCCCC3)ccc2C1)c1ccc(OCC2CC2)cc1` [Example 7-12] the same measures were 94 nM and 3 µg/mL (≈ 6.93 µM).
The like results for `CC(C)(C)CNCc1ccc2c(c1)CC[C@H](NC(=O)c1ccc(OCC3CC3)cc1)C2` [Example 7-13] were, in that order, 93 nM and 7 µg/mL (≈ 16.6 µM).
Turning to `O=C(N[C@H]1CCc2cc(CN3C[C@@H]4CC[C@H]3C4)ccc2C1)c1ccc(OCC2CC2)cc1` [Example 7-14], on human MCH receptor (setting [2]), the IC50 amounted to 92 nM. Further, the solubility (kinetic) in data set [1] was above 272 µg/mL.
The like results for `CN(C(=O)c1ccc(OCC2CC2)cc1)[C@H]1CCc2cc(CN3CCCCCC3)ccc2C1` [Example 7-15] were, in that order, 336 nM and above 280 µg/mL.
For `CC(C)CCNCc1ccc2c(c1)CC[C@H](N(C)C(=O)c1ccc(OCC3CC3)cc1)C2` [Example 7-16] the same measures were 259 nM and 137 µg/mL (≈ 315 µM).
For `CCN(CC)Cc1ccc2c(c1)CC[C@H](N(C)C(=O)c1ccc(OCC3CC3)cc1)C2` [Example 7-18] the same measures were 668 nM and above 267 µg/mL.
Take `CCC(COC)NCc1ccc2c(c1)CC[C@H](N(C)C(=O)c1ccc(OCC3CC3)cc1)C2` (some centres unmarked) [Example 7-19]: the IC50 on human MCH receptor (setting [2]) was 563 nM. This compound showed a kinetic solubility in data set [1] above 282 µg/mL.
For `CCOCCCNCc1ccc2c(c1)CC[C@H](N(C)C(=O)c1ccc(OCC3CC3)cc1)C2` [Example 7-20] the same measures were 133 nM and above 282 µg/mL.
The like results for `COCCCNCc1ccc2c(c1)CC[C@H](N(C)C(=O)c1ccc(OCC3CC3)cc1)C2` [Example 7-21] were, in that order, 133 nM and above 275 µg/mL.
The like results for `COCC1(CNCc2ccc3c(c2)CC[C@H](N(C)C(=O)c2ccc(OCC4CC4)cc2)C3)CC1` [Example 7-22] were, in that order, 148 nM and above 288 µg/mL.
As to `CCOCCNCc1ccc2c(c1)CC[C@H](N(C)C(=O)c1ccc(OCC3CC3)cc1)C2` [Example 7-23], the IC50 on human MCH receptor (setting [2]) is 108 nM. For the same compound, in data set [1], the solubility (kinetic) was above 275 µg/mL.
Consider `COC[C@H](C)NCc1ccc2c(c1)CC[C@H](N(C)C(=O)c1ccc(OCC3CC3)cc1)C2` [Example 7-24], for which the IC50 on human MCH receptor (setting [2]) amounted to 384 nM. For the same compound, the solubility (kinetic) in data set [1] was above 275 µg/mL.
The like results for `COCC(C)(C)CNCc1ccc2c(c1)CC[C@H](N(C)C(=O)c1ccc(OCC3CC3)cc1)C2` [Example 7-25] were, in that order, 286 nM and above 289 µg/mL.
The like results for `CC(C)OCCNCc1ccc2c(c1)CC[C@H](N(C)C(=O)c1ccc(OCC3CC3)cc1)C2` [Example 7-26] were, in that order, 149 nM and above 282 µg/mL.
The like results for `CN(C(=O)c1ccc(OCC2CC2)cn1)[C@H]1CCc2cc(CN3CCCCCC3)ccc2C1` [Example 7-27] were, in that order, 756 nM and 168 µg/mL (≈ 375 µM).
As to `CN(C(=O)c1ccc(OCC2CC2)cn1)[C@H]1CCc2cc(CN3CCC(C)(C)CC3)ccc2C1` [Example 7-28], the IC50 at human MCH receptor (setting [2]) worked out at 152 nM. Further, the kinetic solubility in data set [1] was above 288 µg/mL.
As for `CC1CCN(Cc2ccc3c(c2)CC[C@H](N(C)C(=O)c2ccc(OCC4CC4)cn2)C3)CC1` [Example 7-29], the IC50 on human MCH receptor (setting [2]) stood at 215 nM. The compound also displayed a kinetic solubility in data set [1] above 281 µg/mL.
For `CN(C(=O)c1ccc(OCC2CC2)cn1)[C@H]1CCc2cc(CNCC3CCCC3)ccc2C1` [Example 7-30] the same measures were 156 nM and above 281 µg/mL.
The like results for `CCC1(CNCc2ccc3c(c2)CC[C@H](N(C)C(=O)c2ccc(OCC4CC4)cn2)C3)CC1` [Example 7-31] were, in that order, 190 nM and above 281 µg/mL.
The like results for `CC(C)CCNCc1ccc2c(c1)CC[C@H](N(C)C(=O)c1ccc(OCC3CC3)cn1)C2` [Example 7-32] were, in that order, 145 nM and above 275 µg/mL.
As to `CN(C(=O)c1ccc(OCC2CC2)cn1)[C@H]1CCc2cc(CN3CC4CCC3CC4)ccc2C1` [Example 7-33], the IC50 on human MCH receptor (setting [2]) amounted to 1100 nM. This compound showed a solubility (kinetic) in data set [1] above 287 µg/mL.
For `CN(C(=O)c1ccc(OCC2CC2)cn1)[C@H]1CCc2cc(CNCC(C)(C)C)ccc2C1` [Example 7-34] the same measures were 375 nM and above 275 µg/mL.
